SMILES strings stand for the structures. Values joined by “and” are separate entries in the source; they are usually repeats but may differ in a detail not shown here. Identical values can stand only once. Inconclusive results and toxic doses are left out. Square brackets hold non-standard residues; d marks the D form. Peptide text beside a SMILES is read from it. * marks the point of attachment. Nle = CCCC[CH](N)C(=O)O; Cbz = O=C(OCc1ccccc1)*

Data on 27 molecules can be found in PubChem BioAssay AID330 (DTP/NCI, 2004).

The experiment relates to P388 leukemia ip, CD2F1 mice, survival T/C. The experiment in a line: NCI In Vivo Anticancer Drug Screen. Data for tumor model P388 Leukemia (intraperitoneal) in CD2F1 (CDF1) mice. The settings on record: endpoint: median survival time, higher = longer survival. In short, it runs like this:
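Mice carrying the transplanted tumor received test compound or vehicle. Survival was recorded in each group, and the value is the treated-group measurement divided by that of the vehicle-treated control group.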

Setting [1] is: dose: 60.0 mg/kg/injection, schedule: Q01DX005 (ip), vehicle: Klucel (hydroxypropylcellulose) (HPC).
The mark [2] stands for this setting: dose: 120.0 mg/kg/injection, schedule: Q01DX005 (ip), vehicle: Klucel (hydroxypropylcellulose) (HPC).
[3] abbreviates: dose: 240.0 mg/kg/injection, schedule: Q01DX005 (ip), vehicle: Klucel (hydroxypropylcellulose) (HPC).
Setting [4] is: dose: 50.0 mg/kg/injection, schedule: Q01DX005 (ip), vehicle: Klucel (hydroxypropylcellulose) (HPC).
The mark [5] stands for this setting: dose: 100.0 mg/kg/injection, schedule: Q01DX005 (ip), vehicle: Klucel (hydroxypropylcellulose) (HPC).
[6] abbreviates: dose: 200.0 mg/kg/injection, schedule: Q01DX005 (ip), vehicle: Klucel (hydroxypropylcellulose) (HPC).
The mark [7] stands for this setting: dose: 50.0 mg/kg/injection, schedule: Q01DX009 (ip), vehicle: Klucel (hydroxypropylcellulose) (HPC).
Setting [8] is: dose: 100.0 mg/kg/injection, schedule: Q01DX009 (ip), vehicle: Klucel (hydroxypropylcellulose) (HPC).
Where [9] appears, read: dose: 200.0 mg/kg/injection, schedule: Q01DX009 (ip), vehicle: Klucel (hydroxypropylcellulose) (HPC).
Setting [10] is: dose: 60.0 mg/kg/injection, schedule: Q01DX005 (ip), vehicle: saline.
[11] abbreviates: dose: 120.0 mg/kg/injection, schedule: Q01DX005 (ip), vehicle: saline.
[12] abbreviates: dose: 240.0 mg/kg/injection, schedule: Q01DX005 (ip), vehicle: saline.
The mark [13] stands for this setting: dose: 60.0 mg/kg/injection, schedule: Q01DX005 (ip), vehicle: saline with Tween-80.
Where [14] appears, read: dose: 120.0 mg/kg/injection, schedule: Q01DX005 (ip), vehicle: saline with Tween-80.
Setting [15] is: dose: 50.0 mg/kg/injection, schedule: Q01DX005 (ip), vehicle: saline with Tween-80.
The mark [16] stands for this setting: dose: 100.0 mg/kg/injection, schedule: Q01DX005 (ip), vehicle: saline with Tween-80.
Where [17] appears, read: dose: 200.0 mg/kg/injection, schedule: Q01DX005 (ip), vehicle: saline with Tween-80.

Regarding `CC1(C)SC(=O)N(CCC#CCCc2ccccc2)C1=O`, the T/C runs as follows: under setting [1], 102 % of control; under setting [2], 100 % of control; under setting [3], 92 % of control.
`C/C(=N\NC(=S)N1CCSCC1)c1ccccn1`: the T/C is 113 % of control (dose: 6.25 mg/kg/injection, schedule: Q01DX005 (ip), vehicle: saline with Tween-80) and 91 % of control (dose: 12.5 mg/kg/injection, schedule: Q01DX005 (ip), vehicle: saline with Tween-80).
Turning to `O=C1c2ccccc2C2(O)C3C=CCCN3CN12` (centres undefined), the T/C is, setting by setting: under setting [4], 101 % of control; under setting [5], 100 % of control; under setting [6], 100 % of control.
`O=C1CCCC2=C1c1cc3c(cc1CCN2)OCO3`: the T/C was 101 % of control (dose: 25.0 mg/kg/injection, schedule: Q04DX002 (ip), vehicle: saline with Tween-80); 96 % of control (dose: 50.0 mg/kg/injection, schedule: Q04DX002 (ip), vehicle: saline with Tween-80); 94 % of control and 97 % of control (dose: 100.0 mg/kg/injection, schedule: Q04DX002 (ip), vehicle: saline with Tween-80).
Take `Cc1ccc(C23c4ccccc4CCN2C(=O)C3N)cc1` (centres undefined): the T/C runs as follows: under setting [4], 99 % of control; under setting [5], 106 % of control; under setting [6], 93 % of control.
For `CSc1nc2ccc(CN3C(=O)c4ccccc4C3=O)cc2s1`, the T/C is 88 % of control under setting [7], 98 % of control under setting [8] and 91 % of control under setting [9].
Regarding `Nc1nnc2nc(CC(=O)c3ccc([N+](=O)[O-])cc3)c(CC(=O)c3ccc([N+](=O)[O-])cc3)nn12`, the T/C is 98 % of control under setting [10], 100 % of control under setting [11] and 100 % of control under setting [12].
Consider `COC(=O)C1=NC(=S)N=C(C(=O)OC)C1(C)C(=O)c1ccc(Cl)cc1`, for which the T/C was 95 % of control under setting [13]; 99 % of control under setting [14]; 94 % of control (dose: 240.0 mg/kg/injection, schedule: Q01DX005 (ip), vehicle: saline with Tween-80).
`CCOC(=O)c1ccc(NC(c2ccc(N(CCCl)CCCl)cc2)P(=O)(Oc2ccccc2)Oc2ccccc2)cc1` (centres undefined): the T/C is 93 % of control under setting [7], 96 % of control under setting [8] and 95 % of control under setting [9].
In the case of `O=c1nc(-c2ccc3c(c2)OCO3)sc(=O)[nH]1`, the T/C was 111 % of control (dose: 50.0 mg/kg/injection, schedule: Q01DX009 (ip), vehicle: saline with Tween-80); 107 % of control (dose: 100.0 mg/kg/injection, schedule: Q01DX009 (ip), vehicle: saline with Tween-80); 112 % of control (dose: 200.0 mg/kg/injection, schedule: Q01DX009 (ip), vehicle: saline with Tween-80).
As to `CCCCN1C(=O)C(=O)N(CCc2ccc(OC)c(OC)c2)C1=O`, the T/C was 91 % of control under setting [7], 86 % of control under setting [8] and 91 % of control under setting [9].
On to `Cc1cc(NCCCCNCCCNc2cc(C)nc3cc(N)ccc23)c2ccc(N)cc2n1`, for which the T/C was 150 % of control (dose: 12.5 mg/kg/injection, schedule: Q01DX009 (ip), vehicle: other) and 175 % of control (dose: 25.0 mg/kg/injection, schedule: Q01DX009 (ip), vehicle: other).
On to `COP(=O)(OC)C(=[N+]=[N-])P(=O)(OC(C)C)OC(C)C`, for which the T/C by setting is: (dose: 100.0 mg/kg/injection, schedule: Q01DX001 (ip), vehicle: saline) 99 % of control; (dose: 200.0 mg/kg/injection, schedule: Q01DX001 (ip), vehicle: saline) 101 % of control; (dose: 400.0 mg/kg/injection, schedule: Q01DX001 (ip), vehicle: saline) 100 % of control.
Consider `CCCCC(NC(=O)C(Cc1ccccc1)NC(=O)OCc1ccccc1)C(=O)O` (stereo not drawn) (Cbz-Phe-[Nle]-OH; configuration not given here), for which the T/C by setting is: under setting [15], 104 % of control; under setting [16], 105 % of control; under setting [17], 97 % of control.
Turning to `O=C1NC2(CCCCC2)C(=O)N1CCN1C(=O)NC2(CCCCC2)C1=O`, the T/C is, setting by setting: (dose: 0.75 mg/kg/injection, schedule: Q01DX009 (ip), vehicle: saline) 104 % of control; (dose: 1.5 mg/kg/injection, schedule: Q01DX009 (ip), vehicle: saline) 91 % of control; (dose: 3.0 mg/kg/injection, schedule: Q01DX009 (ip), vehicle: saline) 106 % of control; (dose: 6.0 mg/kg/injection, schedule: Q01DX009 (ip), vehicle: saline) 118 % of control; (dose: 12.0 mg/kg/injection, schedule: Q01DX009 (ip), vehicle: saline) 106 % of control.
Consider `C1CCN(c2c3c(nc4nnnn24)CCC3)CC1`, for which the T/C runs as follows: (dose: 50.0 mg/kg/injection, schedule: Q01DX009 (ip), vehicle: saline) 96 % of control; (dose: 100.0 mg/kg/injection, schedule: Q01DX009 (ip), vehicle: saline) 87 % of control; (dose: 200.0 mg/kg/injection, schedule: Q01DX009 (ip), vehicle: saline) 90 % of control.
For the molecule `COc1ccc(N2C(=O)CC(c3cc(OC)c(OC)c(OC)c3)CC2=O)cc1`, the T/C is, setting by setting: under setting [4], 94 % of control; under setting [5], 89 % of control; under setting [6], 90 % of control.
On to `COCN(Cc1ccccc1)C[Si](C)(C)C`, for which the T/C (dose: 100.0 mg/kg/injection, schedule: Q01DX001 (ip), vehicle: saline with Tween-80) was 106 % of control and the T/C (dose: 200.0 mg/kg/injection, schedule: Q01DX001 (ip), vehicle: saline with Tween-80) is 99 % of control.
Consider `CC(C)(C)C1C=Nn2c(=O)n(-c3ccccc3)c(=O)n21` (centres undefined), for which the T/C is 91 % of control (dose: 25.0 mg/kg/injection, schedule: Q04DX003 (ip), vehicle: other); 94 % of control (dose: 100.0 mg/kg/injection, schedule: Q04DX003 (ip), vehicle: other); 98 % of control (dose: 200.0 mg/kg/injection, schedule: Q04DX003 (ip), vehicle: other); 100 % of control (dose: 400.0 mg/kg/injection, schedule: Q04DX003 (ip), vehicle: other).
For the molecule `CC(NCCN(C)C)C1CC2CCCCN2C1` (centres undefined), the T/C was 104 % of control under setting [13] and 97 % of control under setting [14].
For `CC1SC(C)C1O` (centres undefined), the T/C is 104 % of control under setting [10], 108 % of control under setting [11] and 93 % of control under setting [12].
In the case of `CCCCCCCCCCCCCC(CCCC)CCCCCCCC` (centres undefined), the T/C was 104 % of control (dose: 37.5 mg/kg/injection, schedule: Q01DX001 (ip), vehicle: saline sonified); 100 % of control (dose: 75.0 mg/kg/injection, schedule: Q01DX001 (ip), vehicle: saline sonified); 100 % of control (dose: 150.0 mg/kg/injection, schedule: Q01DX001 (ip), vehicle: saline sonified).
As to `O=C1OC(c2ccccc2)(c2ccccc2)CC1CC(O)(c1ccccc1)c1ccccc1` (centres undefined), the T/C was 98 % of control under setting [15] and 90 % of control under setting [16].
For the molecule `S=c1nc(-c2nc(=S)[nH]c3c2CCCCC3)c2c([nH]1)CCCCC2`, the T/C is 97 % of control under setting [1], 96 % of control under setting [2] and 92 % of control under setting [3].
As to `CCCCCCCC/C=C\CCCCCCCC(=O)OCCCCCCCCCCCCCC`, the T/C is 100 % of control (dose: 12.5 mg/kg/injection, schedule: Q01DX001 (ip), vehicle: other); 90 % of control (dose: 25.0 mg/kg/injection, schedule: Q01DX001 (ip), vehicle: other); 100 % of control (dose: 50.0 mg/kg/injection, schedule: Q01DX001 (ip), vehicle: other).
On to `COc1ccc(C2=C(Cl)C(=O)N(c3ccccc3)C(=O)C2(Cl)Cl)cc1`, for which the T/C is 103 % of control (dose: 100.0 mg/kg/injection, schedule: Q04DX002 (ip), vehicle: Klucel (hydroxypropylcellulose) (HPC)); 107 % of control (dose: 200.0 mg/kg/injection, schedule: Q04DX002 (ip), vehicle: Klucel (hydroxypropylcellulose) (HPC)); 107 % of control (dose: 400.0 mg/kg/injection, schedule: Q04DX002 (ip), vehicle: Klucel (hydroxypropylcellulose) (HPC)).
As to `CCOC(=O)C1=C(/C=C/c2cccc(Cl)c2)O/C(=C/c2cccc(Cl)c2)C1=O`, the T/C is 87 % of control under setting [15], 96 % of control under setting [16] and 106 % of control under setting [17].
